Assay results from the supplement of paper PMC13207355.
Structures can show the parent of a compound that is named as a salt.

Legend:
Conditions in all cases: exposure time: 72 h
[1] = tested on: E13 (patient-derived glioblastoma stem cells of classical subtype); test: surviving fraction (nuclei count normalised to DMSO); higher = more cells surviving (less toxic)
[2] = tested on: E21 (patient-derived glioblastoma stem cells of mesenchymal subtype); test: as above
[3] = tested on: E28 (patient-derived glioblastoma stem cells of classical subtype); test: as above
[4] = tested on: E31 (patient-derived glioblastoma stem cells of proneural subtype); test: as above
[5] = tested on: E34 (patient-derived glioblastoma stem cells of proneural subtype); test: as above
[6] = tested on: E57 (patient-derived glioblastoma stem cells of mesenchymal subtype); test: as above
[7] = tested on: FT3469 (normal neural stem cell line); test: as above
[8] = tested on: E13; test: phenotypic distance (Euclidean, principal components) from DMSO controls (arbitrary units); higher = stronger morphological change
[9] = tested on: E21; test: as above
[10] = tested on: E28; test: as above
[11] = tested on: E31; test: as above
[12] = tested on: E34; test: as above
[13] = tested on: E57; test: as above
[14] = tested on: FT3469; test: as above
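Wherever phenotypic distance (Euclidean, principal components) from DMSO controls is given: cell Painting imaging in 384-well plates, CellProfiler features reduced to at least 20 principal components, Euclidean distance versus same-plate DMSO vehicle wells (0.1% v/v), median over six images per well.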
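Wherever surviving fraction (nuclei count normalised to DMSO) is given: nuclei counted by high-content imaging of Hoechst-stained cells in laminin-coated 384-well plates, relative to 0.1% DMSO vehicle wells, with staurosporine as cell-death control.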

CCCCCCC[N+](CC)(CC)CCCCc1ccc(Cl)cc1 [Clofilium tosylate]
Conditions | phenotypic distance | surviving fraction
[1], 4.1 nM | – | 1.17
[1], 12.3 nM | – | 1.06
[1], 37 nM | – | 0.817
[1], 111.1 nM | – | 0.945
[1], 333.3 nM | – | 0.896
[1], 1000 nM | – | 0.937
[1], 3000 nM | – | 0.609
[2], 4.1 nM | – | 1
[2], 12.3 nM | – | 1.11
[2], 37 nM | – | 1.1
[2], 111.1 nM | – | 1
[2], 333.3 nM | – | 0.976
[2], 1000 nM | – | 1.12
[2], 3000 nM | – | 0.609
[3], 4.1 nM | – | 0.984
[3], 12.3 nM | – | 1.28
[3], 37 nM | – | 0.96
[3], 111.1 nM | – | 1.18
[3], 333.3 nM | – | 1.16
[3], 1000 nM | – | 1.05
[3], 3000 nM | – | 0.485
[4], 4.1 nM | – | 0.763
[4], 12.3 nM | – | 1.03
[4], 37 nM | – | 1.04
[4], 111.1 nM | – | 0.913
[4], 333.3 nM | – | 1.01
[4], 1000 nM | – | 0.95
[4], 3000 nM | – | 0.452
[5], 4.1 nM | – | 1.09
[5], 12.3 nM | – | 1.07
[5], 37 nM | – | 0.961
[5], 111.1 nM | – | 0.954
[5], 333.3 nM | – | 0.998
[5], 1000 nM | – | 1.02
[5], 3000 nM | – | 0.813
[6], 4.1 nM | – | 1.1
[6], 12.3 nM | – | 0.992
[6], 37 nM | – | 1.14
[6], 111.1 nM | – | 0.977
[6], 333.3 nM | – | 1.02
[6], 1000 nM | – | 0.959
[6], 3000 nM | – | 0.866
[7], 4.1 nM | – | 1.12
[7], 12.3 nM | – | 1.26
[7], 37 nM | – | 0.944
[7], 111.1 nM | – | 1.13
[7], 333.3 nM | – | 1.13
[7], 1000 nM | – | 1.07
[7], 3000 nM | – | 0.838
[8], 4.1 nM | 0.802 | –
[8], 12.3 nM | 1.25 | –
[8], 37 nM | 0.557 | –
[8], 111.1 nM | 0.985 | –
[8], 333.3 nM | 0.488 | –
[8], 1000 nM | 0.667 | –
[8], 3000 nM | 1.83 | –
[9], 4.1 nM | 0.676 | –
[9], 12.3 nM | 1 | –
[9], 37 nM | 1.04 | –
[9], 111.1 nM | 1.16 | –
[9], 333.3 nM | 1.29 | –
[9], 1000 nM | 1.68 | –
[9], 3000 nM | 3.13 | –
[10], 4.1 nM | 0.664 | –
[10], 12.3 nM | 1.16 | –
[10], 37 nM | 0.464 | –
[10], 111.1 nM | 0.925 | –
[10], 333.3 nM | 0.998 | –
[10], 1000 nM | 1.17 | –
[10], 3000 nM | 1.84 | –
[11], 4.1 nM | 0.758 | –
[11], 12.3 nM | 0.742 | –
[11], 37 nM | 0.443 | –
[11], 111.1 nM | 0.89 | –
[11], 333.3 nM | 0.62 | –
[11], 1000 nM | 1.43 | –
[11], 3000 nM | 2.44 | –
[12], 4.1 nM | 1 | –
[12], 12.3 nM | 1.05 | –
[12], 37 nM | 0.94 | –
[12], 111.1 nM | 1.17 | –
[12], 333.3 nM | 1.13 | –
[12], 1000 nM | 1.33 | –
[12], 3000 nM | 1.86 | –
[13], 4.1 nM | 0.657 | –
[13], 12.3 nM | 0.645 | –
[13], 37 nM | 0.931 | –
[13], 111.1 nM | 0.93 | –
[13], 333.3 nM | 0.68 | –
[13], 1000 nM | 0.764 | –
[13], 3000 nM | 1.73 | –
[14], 4.1 nM | 0.575 | –
[14], 12.3 nM | 1.1 | –
[14], 37 nM | 0.53 | –
[14], 111.1 nM | 1.01 | –
[14], 333.3 nM | 0.917 | –
[14], 1000 nM | 1.08 | –
[14], 3000 nM | 1.3 | –
